Laboratory results from US20220127297A1, “Novel Antibacterial 3"-Derivatives Of 4,6-Disubstituted 2,5-Dideoxystreptamine Aminoglycoside Antibiotics” (AGILeBiotics B.V., priority 2018, published 2022).
Values after ≈ are worked out from the molar mass of the structure shown. Like-named read-outs stand apart in the source and are kept apart here.

Tested on: clinical isolates of multidrug-resistant Klebsiella pneumoniae (and ATCC43816)
Experiment: MIC determination at Fidelta, clinical isolates
Type: cell-based
Excerpt: 3.4.2 MIC Determination at Fidelta (Croatia)
Tested reference compounds. Amikacin sulfate (Cat. No. 01693, Chem-Impex), Gentamicin sulfate (Cat. No. G4918, Sigma Aldrich), Ceftazidime Pentahydrate (Cat. No. 1098130, USP), Meropenem (Cat. No. 1392454, USP), Tobramycin (Cat. No. 1667508, USP).
Microbial strains. Klebsiella pneumoniae KP-1919 (abdomen), Klebsiella pneumoniae KP-1935 (urine), Klebsiella pneumoniae KP-1936 (abscess), Klebsiella pneumoniae KP-1937 (blood), Klebsiella pneumoniae KP-1942 (urine), Klebsiella pneumoniae KP-1944 (blood), Klebsiella pneumoniae KP-2027 (tracheal aspirate), Klebsiella pneumoniae KP-2029 (urine), Klebsiella pneumoniae KP-2030 (trachea), Klebsiella pneumoniae KP-2031 (skin), Klebsiella pneumoniae KP-2032 (urine), Klebsiella pneumoniae KP-2033 (urine), Klebsiella pneumoniae KP-2034 (urine), Klebsiella pneumoniae KP-2035 (urine), Klebsiella pneumoniae KP-2036 (urine), Klebsiella pneumoniae KP-2037 (urine), Klebsiella pneumoniae ATCC 43816, Pseudomonas aeruginosa PA-1948 (wound), Pseudomonas aeruginosa PA-1949 (urine), Pseudomonas aeruginosa PA-1950 (sputum), Pseudomonas aeruginosa PA-1952 (wound), Pseudomonas aeruginosa PA-1953 (urine), Pseudomonas aeruginosa PA-1954 (sputum), Pseudomonas aeruginosa PA-1967 (blood), Pseudomonas aeruginosa ATCC27853, Acinetobacter baumannii AB-1931 (urine), Acinetobacter baumannii AB-1932 (urine), Acinetobacter baumannii AB-2017 (bronchial aspirate), Acinetobacter baumannii AB-2018 (skin), Acinetobacter baumannii AB-2019 (bronchial aspirate), Acinetobacter baumannii AB-1964 (blood), Acinetobacter baumannii AB-2025 (skin), Acinetobacter baumannii AB-2026 (skin), Acinetobacter baumannii ATCC17978, methicillin-resistant Staphylococcus aureus MRSA-1995 (liquor), methicillin-resistant Staphylococcus aureus MRSA-1998 (wound), methicillin-resistant Staphylococcus aureus MRSA-1999 (skin), methicillin-resistant Staphylococcus aureus MRSA-2003 (wound), vancomycin-resistant Enterococcus faecium VRE-2005 (urine), vancomycin-resistant Enterococcus faecium VRE-2006 (urine), vancomycin-resistant Enterococcus faecium VRE-2007 (urine), vancomycin-resistant Enterococcus faecium VRE-2008 (urine), vancomycin-resistant Enterococcus faecium VRE-2009 (urine), vancomycin-resistant Enterococcus faecium VRE-2010 (urine), vancomycin-resistant Enterococcus faecium VRE-2011 (rectum), vancomycin-resistant Enterococcus faecium VRE-2012 (rectum), vancomycin-resistant Enterococcus faecium VRE-2013 (rectum).
Culture media and equipment. BBL™ Mueller Hinton Broth (REF 275730, Lot. 7009699, Becton Dickinson); Mueller Hinton Agar 2 (Ref. No. 97580-500G-F, Lot. No. BCBV4646, Sigma); Cellstar, 96-well plates, U-bottom (Cat. No. 650180, Lot. No. E14123EB, Greiner Bio-one); 96-well deep well plate, 1 mL (Cat. No. 278606, Nunc); Incubator (Binder); Laminar flow (Thermo Scientific); BioPhotometer (Eppendorf); DEN-1B (McFarland Densitometer, Biosan); McFarland standards (polymer microparticle suspension, Biosan).
Compound preparation. For testing, 5 mg/mL DMSO solutions of the test compounds and reference antibiotics were used. Out of these DMSO solutions, 43.5 μL was transferred to 1656.5 μL of MH media in a deep well plate. Out of these working solutions 100 μL was transferred to wells in the third column of 96-well plates. Plates are previously filled with 50 μL of MH media in all wells except for the wells in the third column. After compound and antibiotic addition, 50 μL was transferred from the third to the fourth column, then from the fourth to the fifth and so on. In this manner, the compounds and antibiotics were plated in 96-well plate in serial two-fold dilutions giving a final concentration range of 64-0.125 μg/mL.
Inoculum preparation. Designations used for clinical isolates were from Fidelta strain collection bank. Microorganisms used were all revived from skim milk storage at −70° C. by plating them on MH agar plates.

[1] = Klebsiella pneumoniae, ATCC43816, KP-1919, Abdomen/VIM, ESBL, read-out: MIC 90
[2] = Klebsiella pneumoniae, ATCC43816, KP-1935, Urine/ESBL, NDM, read-out: MIC 90
[3] = Klebsiella pneumoniae, ATCC43816, KP-1936, Abscess/NDM, read-out: MIC 90
[4] = Klebsiella pneumoniae, ATCC43816, KP-1937, Blood/VIM, ESBL, read-out: MIC 90
[5] = Klebsiella pneumoniae, ATCC43816, KP-1942, Urine (catheter)/VIM, read-out: MIC 90
[6] = Klebsiella pneumoniae, ATCC43816, KP-1944, Blood/NDM, read-out: MIC 90
[7] = Klebsiella pneumoniae, ATCC43816, KP-2027, Tracheal aspirate/ESBL, OXA-48, ColR, read-out: MIC 90
[8] = Klebsiella pneumoniae, ATCC43816, KP-2029, Urine/ESBL, OXA-48, read-out: MIC 90
[9] = Klebsiella pneumoniae, ATCC43816, KP-2030, Trachea/ESBL, OXA-48, read-out: MIC 90
[10] = Klebsiella pneumoniae, ATCC43816, KP-2031, Skin/ESBL, OXA-48, read-out: MIC 90
[11] = Klebsiella pneumoniae, ATCC43816, KP-2032, Urine/ESBL, OXA-48, read-out: MIC 90
[12] = Klebsiella pneumoniae, ATCC43816, KP-2033, Urine/OXA-A8, read-out: MIC 90
[13] = Klebsiella pneumoniae, ATCC43816, KP-2034, Urine/ESBL, OXA-48, read-out: MIC 90
[14] = Klebsiella pneumoniae, ATCC43816, KP-2035, Urine/ESBL, OXA-48, read-out: MIC 90
[15] = Klebsiella pneumoniae, ATCC43816, KP-2036, Urine/ESBL, read-out: MIC 90
[16] = Klebsiella pneumoniae, ATCC43816, KP-2037, Urine/ESBL, OXA-48, read-out: MIC 90

| SMILES | MIC90 (K. pneumoniae ATCC43816 strain) [µg/mL] | MIC90 [1] [µg/mL] | MIC90 [2] [µg/mL] | MIC90 [3] [µg/mL] | MIC90 [4] [µg/mL] | MIC90 [5] [µg/mL] | MIC90 [6] [µg/mL] | MIC90 [7] [µg/mL] | MIC90 [8] [µg/mL] | MIC90 [9] [µg/mL] | MIC90 [10] [µg/mL] | MIC90 [11] [µg/mL] | MIC90 [12] [µg/mL] | MIC90 [13] [µg/mL] | MIC90 [14] [µg/mL] | MIC90 [15] [µg/mL] | MIC90 [16] [µg/mL] | further results |
| --- | --- | --- | --- | --- | --- | --- | --- | --- | --- | --- | --- | --- | --- | --- | --- | --- | --- | --- |
| N=C(NC[C@@H]1CCNC1)NC1[C@@H](O)C(OC2[C@@H](F)[C@H](O[C@H]3OC(CN)[C@@H](O)CC3N)C(N)C[C@H]2NC(=O)[C@@H](O)CCN)O[C@H](CO)[C@H]1O (stereo partly drawn) [ABX5039, Tobra-AHB-F-Gua (R) pyrrolidine-3-ylmethyl] | 1 (≈ 1.44 µM) | 1 (≈ 1.44 µM) | 2 (≈ 2.87 µM) | 1 (≈ 1.44 µM) | 2 (≈ 2.87 µM) | 1 (≈ 1.44 µM) | 2 (≈ 2.87 µM) | 1 (≈ 1.44 µM) | 0.5 (≈ 0.719 µM) | 1 (≈ 1.44 µM) | 0.5 (≈ 0.719 µM) | 0.5 (≈ 0.719 µM) | 0.5 (≈ 0.719 µM) | 1 (≈ 1.44 µM) | 1 (≈ 1.44 µM) | 1 (≈ 1.44 µM) | 0.5 (≈ 0.719 µM) |  |
| N=C(NCCN)NC1C(O)[C@@H](CO)OC(OC2C(F)[C@H](O[C@H]3OC(CN)[C@@H](O)CC3N)C(N)C[C@H]2NC(=O)[C@@H](O)CCN)[C@@H]1O (some centres unmarked) [ABX5020, Tobra-AHB-F-Gua-2-amino-ethyl] | 1 (≈ 1.53 µM) | 4 (≈ 6.1 µM) | 4 (≈ 6.1 µM) | 2 (≈ 3.05 µM) | 8 (≈ 12.2 µM) | 1 (≈ 1.53 µM) | 4 (≈ 6.1 µM) | 2 (≈ 3.05 µM) |  |  |  |  |  |  |  |  |  |  |
| N=C(NC[C@@H]1CCCN1)NC1[C@@H](O)C(OC2[C@@H](F)[C@H](O[C@H]3OC(CN)[C@@H](O)CC3N)C(N)C[C@H]2NC(=O)[C@@H](O)CCN)O[C@H](CO)[C@H]1O (stereo partly drawn) [ABX5026, Tobra-AHB-F-Gua (S) pyrrolidine-2-yl-methyl] | 1 (≈ 1.44 µM) | 1 (≈ 1.44 µM) | 1 (≈ 1.44 µM) | 1 (≈ 1.44 µM) | 2 (≈ 2.87 µM) | 1 (≈ 1.44 µM) | 2 (≈ 2.87 µM) | 1 (≈ 1.44 µM) | 0.5 (≈ 0.719 µM) | 1 (≈ 1.44 µM) | 0.5 (≈ 0.719 µM) | 0.5 (≈ 0.719 µM) | 0.5 (≈ 0.719 µM) | 1 (≈ 1.44 µM) | 0.5 (≈ 0.719 µM) | 0.5 (≈ 0.719 µM) | 0.5 (≈ 0.719 µM) |  |
| N=C(N)NC1[C@@H](O)C(OC2[C@@H](F)[C@H](O[C@H]3OC(CN)[C@@H](O)[C@H](O)C3N)C(N)C[C@H]2NC(=O)[C@@H](O)CCN)O[C@H](CO)[C@H]1O (some centres unmarked) [ABX4006, KanaB-AHB-F-Gua] |  | 1 (≈ 1.59 µM) | 0.5 (≈ 0.795 µM) | 0.5 (≈ 0.795 µM) | 4 (≈ 6.36 µM) | 0.25 (≈ 0.398 µM) | 1 (≈ 1.59 µM) | 0.5 (≈ 0.795 µM) |  |  |  |  |  |  |  |  |  |  |
| N=C(N)NC1C(O)[C@@H](CO)OC(OC2C(F)[C@H](O[C@H]3OC(CN)[C@@H](O)CC3N)C(N)C[C@H]2NC(=O)[C@@H](O)CCN)[C@@H]1O (some centres unmarked) [ABX5006, Tobra-AHB-F-Gua] | 0.25 (≈ 0.408 µM) | 0.5 (≈ 0.816 µM) | 0.5 (≈ 0.816 µM) | 0.5 (≈ 0.816 µM) | 2 (≈ 3.26 µM) | 0.25 (≈ 0.408 µM) | 1 (≈ 1.63 µM) | 0.5 (≈ 0.816 µM) | 0.25 (≈ 0.408 µM) | 0.5 (≈ 0.816 µM) | 0.5 (≈ 0.816 µM) | 0.25 (≈ 0.408 µM) | 0.25 (≈ 0.408 µM) | 0.5 (≈ 0.816 µM) | 0.5 (≈ 0.816 µM) | 0.25 (≈ 0.408 µM) | 0.5 (≈ 0.816 µM) |  |
| NCC[C@H](O)C(=O)N[C@@H]1C[C@H](N)[C@@H](O[C@H]2O[C@H](CN)[C@@H](O)[C@H](O)[C@H]2O)[C@H](O)[C@H]1O[C@H]1O[C@H](CO)[C@@H](O)[C@H](N)[C@H]1O [Amikacin, amikacin, reference compound] |  |  |  |  |  |  |  |  |  |  |  |  |  |  |  |  |  | MIC90 (Klebsiella pneumoniae, ATCC43816): 0.5 µg/mL (≈ 0.854 µM); MIC90 (Klebsiella pneumoniae, ATCC43816, KP-1919, Abdomen/VIM, ESBL): 8 µg/mL (≈ 13.7 µM); MIC90 (Klebsiella pneumoniae, ATCC43816, KP-1935, Urine/ESBL, NDM): 8 µg/mL (≈ 13.7 µM); MIC90 (Klebsiella pneumoniae, ATCC43816, KP-1936, Abscess/NDM): 4 µg/mL (≈ 6.83 µM); MIC90 (Klebsiella pneumoniae, ATCC43816, KP-1937, Blood/VIM, ESBL): 32 µg/mL (≈ 54.6 µM); MIC90 (Klebsiella pneumoniae, ATCC43816, KP-1942, Urine (catheter)/VIM): 2 µg/mL (≈ 3.42 µM); MIC90 (Klebsiella pneumoniae, ATCC43816, KP-1944, Blood/NDM): 8 µg/mL (≈ 13.7 µM); MIC90 (Klebsiella pneumoniae, ATCC43816, KP-2027, Tracheal aspirate/ESBL, OXA-48, ColR): 4 µg/mL (≈ 6.83 µM); MIC90 (Klebsiella pneumoniae, ATCC43816, KP-2029, Urine/ESBL, OXA-48): 8 µg/mL (≈ 13.7 µM); MIC90 (Klebsiella pneumoniae, ATCC43816, KP-2030, Trachea/ESBL, OXA-48): 16 µg/mL (≈ 27.3 µM); MIC90 (Klebsiella pneumoniae, ATCC43816, KP-2031, Skin/ESBL, OXA-48): 8 µg/mL (≈ 13.7 µM); MIC90 (Klebsiella pneumoniae, ATCC43816, KP-2032, Urine/ESBL, OXA-48): 4 µg/mL (≈ 6.83 µM); MIC90 (Klebsiella pneumoniae, ATCC43816, KP-2033, Urine/OXA-A8): 2 µg/mL (≈ 3.42 µM); MIC90 (Klebsiella pneumoniae, ATCC43816, KP-2034, Urine/ESBL, OXA-48): 16 µg/mL (≈ 27.3 µM); MIC90 (Klebsiella pneumoniae, ATCC43816, KP-2035, Urine/ESBL, OXA-48): 8 µg/mL (≈ 13.7 µM); MIC90 (Klebsiella pneumoniae, ATCC43816, KP-2036, Urine/ESBL): 8 µg/mL (≈ 13.7 µM); MIC90 (Klebsiella pneumoniae, ATCC43816, KP-2037, Urine/ESBL, OXA-48): 4 µg/mL (≈ 6.83 µM) |
